In one assay the target is T1, 5-HT3A receptor F130A (Homo sapiens, UniProt P46098, F125A).
T1 sequence (P46098 24-478 F125A): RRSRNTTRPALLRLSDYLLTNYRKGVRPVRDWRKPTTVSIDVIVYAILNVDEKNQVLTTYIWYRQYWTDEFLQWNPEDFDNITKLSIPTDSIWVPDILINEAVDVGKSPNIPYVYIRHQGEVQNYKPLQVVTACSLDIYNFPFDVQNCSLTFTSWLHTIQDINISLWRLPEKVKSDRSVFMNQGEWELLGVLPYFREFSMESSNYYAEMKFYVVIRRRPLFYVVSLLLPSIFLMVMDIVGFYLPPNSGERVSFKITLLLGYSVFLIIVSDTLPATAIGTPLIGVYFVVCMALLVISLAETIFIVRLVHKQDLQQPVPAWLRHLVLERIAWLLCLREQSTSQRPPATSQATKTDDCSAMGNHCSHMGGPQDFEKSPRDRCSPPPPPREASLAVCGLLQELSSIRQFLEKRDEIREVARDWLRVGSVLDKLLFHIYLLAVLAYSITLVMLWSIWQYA
The assay can be described thus: FlexStation membrane potential dye functional assay, HEK293 cells. The arrangement: expressed in transfected cells; host or cells: HEK293. It is filed as cell-based. As to conditions: 5-HT3A F130A.

Another assay has as its target T2, 5-HT3A receptor S163A (Homo sapiens, UniProt P46098, S158A).
T2 sequence (P46098 24-478 S158A): T1 sequence (P46098 24-478 F125A) with A102F, S135A
Described as above. It is filed as cell-based. The arrangement: expressed in transfected cells; host or cells: HEK293. The following applies: 5-HT3A S163A.

A further assay has as its target T3, 5-HT3A receptor Y73S (Homo sapiens, UniProt P46098, Y68S).
T3 sequence (P46098 24-478 Y68S): T1 sequence (P46098 24-478 F125A) with Y45S, A102F
The assay can be described thus: radioligand saturation binding, transfected HEK293 membranes. The following applies: [3H]-palonosetron saturation, 5-HT3A Y73S, 4 °C, 24 h.

In another assay the target is T4, 5-HT3A receptor W90C (Homo sapiens, UniProt P46098, W85C).
T4 sequence (P46098 24-478 W85C): T1 sequence (P46098 24-478 F125A) with W62C, A102F
Described as above. As to conditions: [3H]-palonosetron saturation, 5-HT3A W90C, 4 °C, 24 h, NB = no binding.

In the next assay the target is T5, 5-HT3A receptor D165K (Homo sapiens, UniProt P46098, D160K).
T5 sequence (P46098 24-478 D160K): T1 sequence (P46098 24-478 F125A) with A102F, D137K
The assay is described as above. The following applies: [3H]-palonosetron saturation, 5-HT3A D165K, 4 °C, 24 h.

Setting [1] is: inhibition of 5-HT (EC50 concentration) response, 45 min preincubation.

The values below come from paper PMC3898987 (Bioorganic & Medicinal Chemistry, 2013).

One may read the IC50 as the point on the concentration scale where inhibition reaches its midpoint. A word on the Kd: it is a measure of binding affinity in units of concentration.

Changes are numbered by the printed parent chain. Where only a bound is given, the exact number is not on record here.

Method for 5-HT3A receptor D165K: (§1) Human embryonic kidney (HEK) 293 cells were cultured on 90 mm tissue culture plates at 37 °C and 7% CO2 in a humidified atmosphere. They were grown in DMEM:F12 (Dulbecco’s Modified Eagle’s Medium/Nutrient Mix F12 (1:1)) with GlutaMAX I™ containing 10% fetal calf serum and passaged when confluent. For radioligand binding studies, cells in 90 mm dishes were transfected at 60–70% confluency using polyethyleneimine and incubated for 3–4 days before use. For FlexStation assays, transfected cells were plated on 96-well plates and incubated 1–2 days before assay. […]
(§2) Eight-point binding assays were performed to produce saturation binding curves. […] Radioactive counts were measured using a Beckman LS6000SC liquid scintillation counter (Fullerton, California, USA).
(§3) Data were analyzed by iterative curve fitting using GraphPad Prism v5 (San Diego, CA) according to the following equation: B=Bmax[L]^n/kdn+[L]^n where B is the amount of bound radioligand, Bmax is the maximum specific binding at equilibrium, [L] is the concentration of radioligand, Kd is the equilibrium dissociation constant of the radioligand, and n is the Hill coefficient.
Method for 5-HT3A receptor F130A: (§4) Human embryonic kidney (HEK) 293 cells were cultured on 90 mm tissue culture plates at 37 °C and 7% CO2 in a humidified atmosphere. They were grown in DMEM:F12 (Dulbecco’s Modified Eagle’s Medium/Nutrient Mix F12 (1:1)) with GlutaMAX I™ containing 10% fetal calf serum and passaged when confluent. […] For FlexStation assays, transfected cells were plated on 96-well plates and incubated 1–2 days before assay.
(§5) Fluorometric studies were undertaken using a FlexStation® (Molecular Devices, Sunnyvale, CA, USA) as previously described.[11]
(§6) Fluorescence was measured every 2 s for 200 s. […] Concentration–response and inhibition curves were obtained for each mutant, and the fluorescence values were normalized to the maximal response.
Method for 5-HT3A receptor S163A: as §4, §5, §6
Method for 5-HT3A receptor W90C: as §1, §2, §3
Method for 5-HT3A receptor Y73S: as §1, §2, §3

Take `NCCc1c[nH]c2ccc(O)cc12` [5-HT, serotonin]: the figures for the “Hill Coefficient” value at 5-HT3A receptor F130A (5-HT concentration-response) and at 5-HT3A receptor S163A (5-HT concentration-response) were 1.5 ± 0.2 and 3.8 ± 0.4, respectively.

For `O=C1c2cccc3c2[C@H](CCC3)CN1[C@@H]1CN2CCC1CC2` [Palonosetron], the half-maximal inhibitory concentration (IC50) is 4.4 ± 1.8 nM on 5-HT3A receptor F130A (setting [1]) and 1.57 ± 0.12 nM against 5-HT3A receptor S163A (setting [1]). The dissociation constant (Kd) at 5-HT3A receptor Y73S is 0.61 ± 0.11 nM; on 5-HT3A receptor W90C, above 2 nM; on 5-HT3A receptor W90C (listed as [^3H]palonosetron), “no saturable, specific binding”; at 5-HT3A receptor D165K, 0.36 ± 0.02 nM.
